# According to US9642839B2, “Substance having tyrosine kinase inhibitory activity and preparation method and use thereof” (Institute of Radiation Medicine, China Academy of Military …, priority 2013, dated 2017):
# pIC50: −log10 of the molar value.
# Tests used:
# MHCC97-H cells = experiment: In vitro antitumor activity, MTS cell proliferation; assay type: cell-based, human; conditions: Homo sapiens, MHCC97H, hepatocellular cancer, 72 hours
# Method: (§1) Method: 14 cell lines (MKN-45 cells, MHCC97-L cells, MHCC97-H cells, HLE cells, HepG2 cells, 7721 cells, L02 cells, A375 cells, H460 cells, A549 cells, SK-N-SH cells, MCF-7 cells, K562 cells, and Ba/F3-Tpr-Met cells (pre-B cells which are malignantly transformed by the c-Met constitutive active mutant Tpr-Met) were seeded into 96-well plate at 1×10^4 cells/well, and each well was added with 150 μl DMEM medium (purchased from Invitrogen) containing 10% fetal bovine serum (purchased from Hyclone). When cell adherent was observed, different concentrations of 2-indolone derivatives (concentrations at 0.1-10 μM) were added, in addition to the negative control (vehicle control group) and blank control (medium group). After culture at 37° C., 5% CO2 for 72 hours, MTS reagent (Promega Corporation) were added for further culture for 2-4 h.
# A549 cells = experiment: as above; assay type: cell-based, human; conditions: Homo sapiens, A549, lung cancer, 72 hours
# Method: as §1
# L02 cells = experiment: MTS cell proliferation, normal liver cells; assay type: cell-based; conditions: Homo sapiens, L02, normal hepatic cells, 72 hours
# Method: […] After culture at 37° C., 5% CO2 for 72 hours, MTS reagent (Promega Corporation) were added for further culture for 2-4 h.
# c-Met = conditions: MHCC97-H cells, 2 μM versus 1 μM SU11274
# Method: The medium was changed once every 1-2 days. […] The supernatant was discarded, and fresh medium was added for subculture.
# SU11274 (purchased from Sigma) is a specific c-Met kinase inhibitor which may block activation of c-Met. […] After incubation with the compounds for 2 h, the cells were harvested and total protein was extracted. Western blot assay was carried out with c-Met phosphorylated and non-phosphorylated antibodies, ERK phosphorylated and non-phosphorylated antibodies, Akt phosphorylated and non-phosphorylated antibodies (all purchased from Cell Signaling), and GAPDH antibody (purchased from Santa Cruz).
# lung cancer cell A549 = experiment: Lung orthotopic tumor formation model; assay type: in vivo, BALB/c nude mice; conditions: for Tumor inhibition rate / Weight of tumor: 6 administrations; for Average weight (X ± S), End: animal weight at end, in g (unit assumed)
# Method: The medium was changed once every 1-2 days. […] The subcultured tumor cells were digested into suspensions under a sterile condition, and orthotopically injected into BALB/c nude mice at the left chest between the third and fourth ribs (3.0×10^6 cells/mouse, 30 μl). The inoculation needle entered into the pulmonary lobe at a depth of about 5 mm. The inoculation day is labeled as DO. Seven days later, animals were weighed and randomized into groups based on body weight.
# Method: Animal models were randomized into three groups, vehicle control group (DMSO injected intraperitoneally), intraperitoneal low dose group (18 mg/kg), and intraperitoneal high dose group (36 mg/kg). The animals received treatment once every 24 hours. After 6 times of successive administration, animals were kept for another 30 days. At the end of this experiment, animals were sacrificed, and dissected to obtain lungs. Tumor was dissected and weighed.
# PDGFR = experiment: Kinase Glo Plus kinase activity assay; assay type: biochemical
# Method: (§2) 2) Activity of the rest 14 receptor tyrosine kinases was tested by using Kinase Glo Plus assay format, Progmag, and IC50 with regard to kinase activity was calculated based on the inhibition rate.
# TrkA = TrkA (Homo sapiens, UniProt P04629); experiment: Kinase Glo Plus kinase activity assay; assay type: biochemical
# Method: as §2
# TrkB [1] = target: T1, TrkB (Homo sapiens, UniProt Q16620); experiment: Kinase Glo Plus kinase activity assay; assay type: biochemical
# Method: as §2
# FGFR = experiment: Kinase Glo Plus kinase activity assay; assay type: biochemical
# Method: as §2
# SK-N-SH cells = experiment: In vitro antitumor activity, MTS cell proliferation; assay type: cell-based; conditions: Homo sapiens, neuroblastoma, 72 hours
# Method: as §1
# A375 cells = experiment: as above; assay type: cell-based; conditions: Homo sapiens, A-375, A375, skin cancer, 72 hours
# Method: as §1
# H460 cells = experiment: as above; assay type: cell-based; conditions: Homo sapiens, NCI-H460, H460, lung cancer, 72 hours
# Method: as §1
# MHCC97-L cells = experiment: as above; assay type: cell-based; conditions: MHCC97L, hepatocellular cancer, 72 hours
# Method: as §1
# HLE cells = experiment: as above; assay type: cell-based; conditions: Homo sapiens, hepatocellular cancer, 72 hours
# Method: as §1
# MKN-45 cells = experiment: as above; assay type: cell-based; conditions: Homo sapiens, MKN-45, gastric cancer, 72 hours
# Method: as §1
# Ba/F3-Tpr-Met cells = experiment: as above; assay type: cell-based; conditions: pre-B cell, 72 hours
# Method: as §1
# K562 cells = experiment: as above; assay type: cell-based; conditions: Homo sapiens, K562, leukemia, 72 hours
# Method: as §1
# MCF-7 cells = experiment: as above; assay type: cell-based; conditions: Homo sapiens, MCF7, MCF-7, breast cancer, 72 hours
# Method: as §1
# HepG2 cells = experiment: as above; assay type: cell-based; conditions: Homo sapiens, HepG2, hepatocellular cancer, 72 hours
# Method: as §1
# TrkB [2] = target: T1, TrkB; experiment: Western blot, BDNF-induced TrkB phosphorylation and signaling pathway in SK-N-SH cells; assay type: cell-based; conditions: 0.05-1.0 μM, 200 ng/ml BDNF
# Method: The medium was changed once every 1-2 days. […] 500 ng/mL NGF or 200 ng/ml BDNF (if not added, marked as “-”) were added to stimulate the cells for 5 min. After cell lysis, total protein was extracted. Western blot assay was carried out with TrkA phosphorylated and non-phosphorylated (p-TrkA) antibodies, TrkB phosphorylated and non-phosphorylated (p-TrkB) antibodies, ERK phosphorylated and non-phosphorylated (p-ERK) antibodies, Akt phosphorylated and non-phosphorylated (p-Akt) antibodies, and GAPDH antibody.
# [3] = intraperitoneal high dose 36 mg/kg
# [4] = intraperitoneal low dose 18 mg/kg
# T1 sequence (Q16620 32-822, species assumed): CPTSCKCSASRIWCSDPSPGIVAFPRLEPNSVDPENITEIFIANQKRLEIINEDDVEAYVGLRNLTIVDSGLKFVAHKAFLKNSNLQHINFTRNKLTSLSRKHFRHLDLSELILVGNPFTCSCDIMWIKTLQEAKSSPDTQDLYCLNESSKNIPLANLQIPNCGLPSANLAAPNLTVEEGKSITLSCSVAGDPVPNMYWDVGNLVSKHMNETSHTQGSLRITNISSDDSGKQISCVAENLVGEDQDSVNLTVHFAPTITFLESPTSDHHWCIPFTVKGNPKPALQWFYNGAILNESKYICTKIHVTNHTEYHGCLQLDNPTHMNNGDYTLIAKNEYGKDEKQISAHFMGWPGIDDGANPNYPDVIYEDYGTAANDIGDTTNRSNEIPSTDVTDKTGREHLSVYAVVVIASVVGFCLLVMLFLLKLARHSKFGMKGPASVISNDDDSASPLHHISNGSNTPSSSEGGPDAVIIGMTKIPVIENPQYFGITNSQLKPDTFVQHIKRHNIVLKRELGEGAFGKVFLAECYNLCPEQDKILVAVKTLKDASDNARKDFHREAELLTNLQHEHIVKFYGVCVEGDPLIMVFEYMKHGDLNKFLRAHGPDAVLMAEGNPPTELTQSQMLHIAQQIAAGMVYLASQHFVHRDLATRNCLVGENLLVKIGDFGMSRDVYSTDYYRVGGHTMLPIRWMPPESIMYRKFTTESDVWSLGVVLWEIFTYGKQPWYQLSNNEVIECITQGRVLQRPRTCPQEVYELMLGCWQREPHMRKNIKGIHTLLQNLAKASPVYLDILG
# TrkA, sequence (P04629 33-796, species assumed): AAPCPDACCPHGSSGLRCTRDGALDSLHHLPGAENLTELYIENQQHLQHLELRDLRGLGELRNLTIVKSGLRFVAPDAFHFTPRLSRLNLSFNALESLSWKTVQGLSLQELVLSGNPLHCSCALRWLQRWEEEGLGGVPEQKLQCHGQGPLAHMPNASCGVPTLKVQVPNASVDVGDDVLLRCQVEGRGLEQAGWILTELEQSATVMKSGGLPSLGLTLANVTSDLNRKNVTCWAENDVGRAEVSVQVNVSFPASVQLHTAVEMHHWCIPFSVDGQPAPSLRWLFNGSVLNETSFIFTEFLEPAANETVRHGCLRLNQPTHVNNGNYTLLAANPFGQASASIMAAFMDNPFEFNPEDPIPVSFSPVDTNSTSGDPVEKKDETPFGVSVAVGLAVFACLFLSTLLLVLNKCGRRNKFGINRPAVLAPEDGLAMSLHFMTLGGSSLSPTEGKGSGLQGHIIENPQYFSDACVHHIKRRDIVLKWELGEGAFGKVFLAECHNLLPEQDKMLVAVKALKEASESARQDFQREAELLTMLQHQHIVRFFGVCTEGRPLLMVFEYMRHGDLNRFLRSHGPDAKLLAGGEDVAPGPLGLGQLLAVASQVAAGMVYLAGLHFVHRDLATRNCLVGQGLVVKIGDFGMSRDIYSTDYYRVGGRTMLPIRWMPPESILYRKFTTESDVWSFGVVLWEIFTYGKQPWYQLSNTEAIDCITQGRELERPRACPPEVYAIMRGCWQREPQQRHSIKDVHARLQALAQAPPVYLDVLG
smiles,measurement,setting,value
"Cc1ccccc1NS(=O)(=O)c1ccc2c(c1)/C(=C/c1nc3ccccc3[nH]1)C(=O)N2 [Indo 5, 3-(1H-benzimidazol-2-methylene)-5-(2-methylphenylaminosulfo)-2-indolone]",pIC50,MHCC97-H cells,5.99
same,pIC50,A549 cells,5.66
same,pIC50,L02 cells,4.68
same,Inhibitory effect on c-Met phosphorylation versus positive control,c-Met,comparable to the positive control SU11274
same,Tumor inhibition rate,lung cancer cell A549; [3],40.7%
same,Weight of tumor,lung cancer cell A549; [3],0.224 ± 0.07 g
same,"Average weight (X ± S), End",lung cancer cell A549; [3],20.4 ± 0.3
same,Tumor inhibition rate,lung cancer cell A549; [4],23.8%
same,Weight of tumor,lung cancer cell A549; [4],0.288 ± 0.08 g
same,"Average weight (X ± S), End",lung cancer cell A549; [4],19.5 ± 0.7
same,pIC50,PDGFR,< 5.00
same,pIC50,TrkA,7.66
same,pIC50,TrkB [1],6.64
same,pIC50,FGFR,< 5.00
same,pIC50,SK-N-SH cells,5.93
same,pIC50,A375 cells,5.73
same,pIC50,H460 cells,5.97
same,pIC50,MHCC97-L cells,5.92
same,pIC50,HLE cells,5.28
same,pIC50,MKN-45 cells,5.81
same,pIC50,Ba/F3-Tpr-Met cells,5.32
same,pIC50,K562 cells,5.59
same,pIC50,MCF-7 cells,5.89
same,pIC50,HepG2 cells,5.25
same,Phosphorylation of TrkB and downstream ERK and Akt,TrkB [2],significantly inhibited
